The results in this text go back to ChEMBL document CHEMBL4400553, “Semisynthesis of epoxy-pimarane diterpenoids from kirenol and their FXa inhibition activities” (Bioorg Med Chem, 2019).

This experiment addresses Coagulation factor X (Homo sapiens, UniProt P00742). Put plainly: Inhibition of human factor Xa using Z-D-Arg-Gly-Arg-pNA.2HCl as substrate preincubated for 15 mins followed by substrate addition by UV absorption analysis.

Chain of Coagulation factor X (P00742 41-179 limits assumed): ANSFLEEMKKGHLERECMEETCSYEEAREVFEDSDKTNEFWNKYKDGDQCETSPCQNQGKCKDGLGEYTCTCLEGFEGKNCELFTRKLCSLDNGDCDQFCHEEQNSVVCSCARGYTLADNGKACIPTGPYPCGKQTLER
Chain of Coagulation factor X (P00742 235-488 limits assumed): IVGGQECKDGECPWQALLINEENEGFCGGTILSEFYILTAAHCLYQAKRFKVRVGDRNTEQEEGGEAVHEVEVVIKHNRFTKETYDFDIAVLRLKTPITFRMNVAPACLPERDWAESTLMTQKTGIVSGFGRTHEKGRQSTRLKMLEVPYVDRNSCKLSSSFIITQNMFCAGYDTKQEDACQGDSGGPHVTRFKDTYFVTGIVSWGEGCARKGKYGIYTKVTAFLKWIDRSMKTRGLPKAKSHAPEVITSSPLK

By IC50 is commonly meant the point on the concentration scale where inhibition reaches its midpoint. As for `C[C@]12CC[C@@H]3[C@](CC[C@@H]4[C@](C)(CO)C[C@@H](O)C[C@]43C)(C1)O[C@H]2CO`, half-maximal inhibition (IC50) was put at 6.1 µM. As for `C[C@@]1(CO)C[C@@H](O)C[C@]2(C)[C@@H]1CC[C@@]13O[C@H](CO)[C@@](C)(CC[C@@H]21)[C@H]3Br`, the IC50 is 7.9 µM.

`CC1(C)OC[C@@H]([C@@]2(C)CC[C@@H]3C4(CC[C@@H]5[C@](C)(CO)C[C@@H](O)C[C@@]35C)OC42)O1` (some centres not stated) showed a concentration for half-maximal inhibition (IC50) of 18.5 µM. `C[C@@]1(CO)C[C@@H](O)C[C@@]2(C)C3=C(CC[C@H]12)[C@H]1OC[C@H](O)[C@@]1(C)CC3` showed an IC50 of 27.9 µM. For the compound `C[C@]12CC[C@@H]3[C@](CC[C@@H]4[C@](C)(CO)C[C@@H](O)C[C@]43C)(C1)OC2=O`, the IC50 amounted to 1.7 µM. Consider `C[C@@]1(CO)C[C@@H](O)C[C@@]2(C)[C@@H]3CC[C@](C)(C(=O)O)C=C3CC[C@H]12`, for which half-maximal inhibition (IC50) required 0.22 µM. `C[C@@]1(CO)C[C@@H](O)C[C@]2(C)[C@@H]1CC[C@@]13O[C@@H](CO)[C@@](C)(CC[C@@H]21)[C@H]3Br` returned an IC50 of 4.7 µM. `C[C@@]1(CO)C[C@@H](O)C[C@@]2(C)[C@@H]3CC[C@@]4(C)[C@H](OC[C@@H]4O)C3=CC[C@H]12` came in with an IC50 of 17.8 µM. `C[C@@]1(CO)C=C2CC[C@@H]3[C@](C)(CO)C[C@@H](O)C[C@@]3(C)[C@@H]2CC1`: half-maximal inhibition (IC50) was put at 0.96 µM. `CC1(C)OC[C@@H]([C@]2(C)C=C3CC[C@@H]4[C@](C)(CO)C[C@@H](O)C[C@@]4(C)[C@@H]3CC2)O1`: the IC50 was determined as 7.2 µM. For `C[C@]12CC[C@@H]3[C@](CC[C@@H]4[C@](C)(CO)C[C@@H](O)C[C@]43C)(C1)OC2`, the IC50 turned out to be 7.4 µM.

The compound `C[C@@]1(CO)C[C@@H](O)C[C@@]2(C)[C@@H]3CC[C@](C)([C@@H](O)CO)C=C3CC[C@H]12` [KIRENOL] registered a 50% inhibitory concentration (IC50) of 2.5 µM.
